Measured values as given in patent US20130225597A1, “USE OF PHOSPHODIESTERASE INHIBITOR TO ENHANCE POST-SURGICAL ERECTION IN MEN UNDERGOING RADICAL PROSTATECTOMY” (University of Medicine and Dentistry of New Jersey, priority 2010, published 2013).
Structures can show the parent of a compound that is named as a salt.

Key:
PC12 neuronal cell = assay: Neuronal survival of hydrogen peroxide treated PC-12 cells; type: cell-based; details: 1 mM H2O2 for 1 hour, 24 hours incubation, viable cells counted
Description: Neuronal Survival Experiments. For survival experiments, PC12 neuronal cell were seeded in 6-well plates at a density of 1×10^5 per well in Dulbecco's modified Eagle's medium (DMEM) supplemented with 1% fetal bovine serum (FBS) and 100 ng/ml nerve growth factor (NGF), herein after (“Media”), for 3 days. Media was changed every 3 days. Cells were treated in the presence or absence of 1 mM hydrogen peroxide (H2O2) for 1 hour in the presence or absence of either sildenafil Citrate, vardenafil, or tardalafil at 0.1-fold physiologic dose (0.5 μM, 0.3 μM and 0.4 μM, respectively), physiologic dose (5 μM, 3 μM and 4 μM, respectively) and 10-fold physiologic dose (50 μM, 30 μM and 40 μM, respectively). Treated cells were incubated for 24 hours at 37° C. Viable cells were detached and counted using an automated counter.

[1] = system: post-radical prostatectomy erection dysfunction; assay: Clinical study: sildenafil citrate at the operative site in robot-assisted radical prostatectomy, potency recovery; type: in vivo, humans; details: 147 men
Description: Clinical Studies. For effective study in humans, 147 men that underwent robot-assisted radical prostatectomy were treated with sildenafil citrate at the operative site. Potency was reported in 24.2%, 84.2% and 93.3% of the subjects at three, six, and twelve months post-operative, respectively.

[2] = system: spinal motor and non-motor neurons; details: cited from earlier work

SMILES: COc1ccc(C2CNC(=O)C2)cc1OC1CCCC1 (centres unmarked) [rolipram]
- protection against H2O2-induced cell death (neuronal viability) (PC12 neuronal cell): significant protection

SMILES: CCCc1nn(C)c2c(=O)[nH]c(-c3cc(S(=O)(=O)N4CCN(C)CC4)ccc3OCC)nc12 [sildenafil citrate]
- Potency reported, % of subjects ([1]; six months post-operative): 84.2%
- Potency reported, % of subjects ([1]; three months post-operative): 24.2%
- Potency reported, % of subjects ([1]; twelve months post-operative): 93.3%

SMILES: CCCOc1ccccc1-c1nc2nn[nH]c2c(=O)[nH]1 [zaprinas]
- protection against acute Reactive Oxygen Species-induced neurotoxicity [2]: protect
